In publication PMC10192568, “Comparison of pharmacokinetic profiles of seven major bioactive components in normal and non-alcoholic fatty liver disease (NAFLD) rats after oral administration of Ling-Gui-Zhu-Gan decoction by UPLC-MS/MS” (Frontiers in Pharmacology, 2023):
Like-named read-outs stand apart in the source and are kept apart here.

Tests used:
[1] = Stability of the seven components in rat plasma QC samples; type: physicochemical; conditions: n = 6; for Stability during 24 h at 4°C, RE: auto sampler
Protocol: Stability refers to the ability of the components to retain their chemical properties in the matrix. To analyze the stability of all components in the plasma, six replicates of QC samples at three concentrations were hereby prepared under each condition. The stability of the QC samples at three concentrations was analyzed under different storage conditions: −80°C for 30 days, after three freeze–thaw cycles, and 24 h in an auto sampler at 4°C.

[2] = Pharmacokinetic study of LGZGD components in plasma of normal and NAFLD rats after oral administration (UPLC-MS/MS); type: in vivo, Male Sprague–Dawley rats; conditions: for AUC0-∞ value decreased / C max value decreased: NAFLD rats compared with normal rats; for AUC0-∞ value decreased / C max value decreased / MRT0-t prolonged / MRT decreased: oral LGZGD; for MRT0-t prolonged / MRT decreased: NAFLD rats compared with the normal group; for AUC(0-inf) / AUC(0-t) / Cmax / Tmax / half-life / MRT last: Sprague-Dawley, rat, plasma, male SD rats, oral LGZGD extract 23 g/kg, mean ± SD, n = 6; for MRT last: read-out: MRT0-t
Protocol: Male Sprague–Dawley rats, weighing 200–220 g, SPF grade, were purchased from Shanghai Sippr-BK laboratory animal Co. Ltd. (Shanghai, China) and raised in the Laboratory Animal Center of Shanghai University of Traditional Chinese Medicine. The rats were kept in an environmentally controlled condition: on a 12:12 h light–dark cycle (lights on at 7:00 a.m.) with regulated temperature and humidity, at a temperature of 22°C–24°C and a relative humidity of 60–65%. In the experiment, the rats in the normal group were fed a certified standard rat diet and tap water, while those in the model group were fed a high-fat diet for 8 weeks to construct the NAFLD model (high-fat diet: 2% cholesterol, 10% lard, 0.1% sodium cholate, 10% yolk powder, and 77.9% normal diet). The animal experiment program was approved by the Animal Committee of Shanghai University of Traditional Chinese Medicine (License No.: PZSHUTCM201016001).
An Agilent 1290 UPLC system was combined with an Agilent 6460 series MS/MS system (Agilent Technologies, Santa Clara, CA, United States) to quantify the analytes in the ESI-positive ionization mode. The mass spectrum conditions were as follows: a capillary voltage of 4,000 V; a gas flow rate of 10 L/min; a nebulizer of 30 psi; a gas temperature of 350°C; and a Delta EMV(+) of 200 V. Five microliters of the samples was injected into an Agilent SB-C18 column (2.1 mm × 50 mm, 1.8 μm particles). The analytes were separated using the gradient elution method, and the mobile phase was composed of water (0.05% V/V formic acid) (A) and acetonitrile (B) at a flow rate of 0.4 mL/min (0–1 min, 10–10% B; 1–5 min, 10–90% B; 5–7 min, 90–90% B; and 7–7.1 min, B 90–10%; rebalance for 2 min).
A plasma sample of 50 µL was placed in a 1.5 mL centrifuge tube with 10 µL of schisandrin (IS) solution (50 ng/mL) and mixed for 5 min. The samples were successively extracted with 500 µL of ethyl acetate and treated with 250 µL of methanol, which were then mixed for 5 min and centrifuged at 4°C for 10 min (at 18,000 rpm). All the supernatant was absorbed into another 1.5 mL centrifuge tube, dried under a gentle stream of nitrogen at 37°C, and then added with 50 µL of 50% methanol for reconstruction. After being centrifuged at 4°C for 10 min (at 18,000 rpm), 5 µL of the supernatant was extracted and injected into a chromatographic column for analysis, and the chromatograms were recorded.
The rats were randomly divided into the normal group and the model group. According to the preliminary experiment, the dose was adjusted to about eight times the normal dose ([Gu, 2020]; [Li et al., 2023]). […] The animal research program was approved by the Animal Committee of Shanghai University of Traditional Chinese Medicine. At 0, 0.083, 0.25, 0.5, 0.75, 1, 2, 4, 6, 8, 10, 12, 24, and 48 h after dosing, 150 µL blood samples were collected from the rats' orbital venous plexus into centrifuge tubes containing 10 IU of sodium heparin. After being centrifuged at 5,000 rpm (4°C) for 10 min, the plasma was transferred to 1.5 mL polypropylene tubes and stored at −80°C until the plasma samples were analyzed.
Important pharmacokinetic parameters, which included the maximum plasma concentration (C max), time to maximum concentration (T max), half-life (t 1/2), area under the curve (AUC0-t), and total area under the curve (AUC0-∞), were hereby calculated using the DAS 3.2.8 software. Meanwhile, the pharmacokinetic data of the normal and model rats were compared using the SPSS software (version 21.0). Besides, Spearman rank bivariate correlation coefficient was used to determine the correlation between AUC values and UGT1A1 and nine other transporters. All the calculated data were expressed as mean ± SD. When p < 0.05, the difference was considered significant and statistically significant; and when p < 0.01 or <0.001, the difference was considered very significant.

[3] = male, po, 23 g/kg, Model (NAFLD) group
[4] = male, po, 23 g/kg, Normal group

| SMILES | Stability during 24 h at 4°C, RE ([1]; high QC level) [%] | Stability during 24 h at 4°C, RE ([1]; low QC level) [%] | Stability during 24 h at 4°C, RE ([1]; medium QC level) [%] | Three freeze–thaw cycles, RE ([1]; high QC level) [%] | −80°C for 30 days, RE ([1]; high QC level) [%] | Three freeze–thaw cycles, RE ([1]; low QC level) [%] | −80°C for 30 days, RE ([1]; low QC level) [%] | Three freeze–thaw cycles, RE ([1]; medium QC level) [%] | −80°C for 30 days, RE ([1]; medium QC level) [%] | AUC0-∞ value decreased [2] [%] | C max value decreased [2] [%] | AUC(0-inf) [2, 3] [ng·h/mL] | AUC(0-t) [2, 3] [ng·h/mL] | Cmax [2, 3] [ng/mL] | half-life [2, 3] [h] | MRT last [2, 3] [h] | AUC(0-inf) [2, 4] [ng·h/mL] | AUC(0-t) [2, 4] [ng·h/mL] | Cmax [2, 4] [ng/mL] | half-life [2, 4] [h] | also measured |
| --- | --- | --- | --- | --- | --- | --- | --- | --- | --- | --- | --- | --- | --- | --- | --- | --- | --- | --- | --- | --- | --- |
| C=C1CCC[C@]2(C)C[C@]3(O)OC(=O)C(C)=C3C[C@@H]12 [Atractylenolide III, atractylenolide III] | −4.0 | 6.4 | 5.2 | −3.8 | 14.1 | 13.3 | −4.4 | −9.5 | −3.5 | 70.8 | 35.2 | 166 ± 45.1 | 117 ± 16.1 | 7.9 ± 1.3 | 18.3 ± 1.3 | 19.3 ± 2.9 | 568 ± 235 | 352 ± 21.5 | 12.2 ± 3.4 | 10.2 ± 4.4 | MRT0-t prolonged [2]: 31.3%; Tmax [2, 3]: 0.6 ± 0.1 h; Tmax [2, 4]: 0.7 ± 0.1 h; MRT last [2, 4]: 14.7 ± 1.5 h |
| O=C(O)/C=C/c1ccccc1 [Cinnamic acid, cinnamic acid] | −3.7 | 8.4 | 13.9 | −11.1 | −2.6 | −0.4 | −8.0 | 0.7 | 3.6 | 58.1 | 38.3 | 4410 ± 1420 | 4330 ± 1330 | 1190 ± 352 | 6.6 ± 3.5 | 6.2 ± 1.8 | 10500 ± 1900 | 10100 ± 1770 | 1930 ± 484 | 12.8 ± 3.6 | Tmax [2, 3]: 0.6 ± 0.1 h; Tmax [2, 4]: 0.6 ± 0.1 h; MRT last [2, 4]: 8.2 ± 1.3 h |
| C=C(CC[C@@H](C(=O)O)[C@H]1[C@H](O)C[C@@]2(C)C3=CC[C@H]4C(C)(C)[C@@H](O)CC[C@]4(C)C3=CC[C@]12C)C(C)C [Dehydrotumulosic acid, dehydrotumulosic acid] | −2.3 | 3.8 | 1.6 | 5.5 | 3.0 | −12.8 | 3.2 | −4.3 | 10.2 | 75.1 | 62.4 | 43.5 ± 12 | 43.4 ± 12 | 3.8 ± 0.6 | 5 ± 1.8 | 10.4 ± 2.2 | 175 ± 37.2 | 142 ± 15.8 | 10.1 ± 3 | 19 ± 12.2 | MRT decreased [2]: 27.8%; Tmax [2, 3]: 1.8 ± 1.6 h; Tmax [2, 4]: 4 ± 1.8 h; MRT last [2, 4]: 14.4 ± 2.7 h |
| CC1(C)[C@@H](O)CC[C@]2(C)[C@H]3C(=O)C=C4[C@@H]5C[C@@](C)(C(=O)O)CC[C@]5(C)CC[C@@]4(C)[C@]3(C)CC[C@@H]12 [Glycyrrhetinic acid, glycyrrhetinic acid] | −8.9 | 5.2 | 6.7 | 2.2 | 2.6 | −0.4 | −5.2 | −7.7 | −4.9 | 50.6 | 65.0 | 26200 ± 14400 | 25600 ± 14800 | 1650 ± 1170 | 8.9 ± 4.5 | 15.6 ± 2.3 | 89600 ± 28600 | 88200 ± 27200 | 7280 ± 2080 | 6 ± 2.1 | MRT0-t prolonged [2]: 44.4%; Tmax [2, 3]: 13.2 ± 6.3 h; Tmax [2, 4]: 9.3 ± 1.6 h; MRT last [2, 4]: 10.8 ± 1.1 h |
| CC1(C)[C@@H](O[C@H]2O[C@H](C(=O)O)[C@@H](O)[C@H](O)[C@H]2O[C@@H]2O[C@H](C(=O)O)[C@@H](O)[C@H](O)[C@H]2O)CC[C@]2(C)[C@H]3C(=O)C=C4[C@@H]5C[C@@](C)(C(=O)O)CC[C@]5(C)CC[C@@]4(C)[C@]3(C)CC[C@@H]12 [Glycyrrhizic acid, glycyrrhizic acid] | −3.3 | −1.6 | −5.6 | 9.7 | 2.7 | −5.9 | −1.0 | −3.7 | 1.7 | 70.8 | 77.4 | 40800 ± 25000 | 40700 ± 25100 | 2240 ± 1200 | 5.4 ± 1.4 | 16 ± 8 | 82700 ± 10000 | 81000 ± 10500 | 6420 ± 2240 | 6.3 ± 3 | Tmax [2, 3]: 8.1 ± 4.9 h; Tmax [2, 4]: 10.4 ± 1.7 h; MRT last [2, 4]: 13.7 ± 3.3 h |
| O=C(/C=C/c1ccc(O[C@@H]2O[C@H](CO)[C@@H](O)[C@H](O)[C@H]2O)cc1)c1ccc(O)cc1O [Isoliquiritin, isoliquiritin] | −12.7 | 1.3 | 11.0 | 3.9 | 4.0 | −6.8 | −1.1 | −3.0 | −2.1 | 65.8 | 31.1 | 56.9 ± 10.8 | 51.9 ± 7.8 | 4.2 ± 0.8 | 13.1 ± 7.5 | 15.5 ± 1.8 | 166 ± 10.5 | 108 ± 21.2 | 6.1 ± 1.8 | 9.2 ± 4.4 | MRT decreased [2]: 21.7%; Tmax ([2]; Normal group): 0.6 ± 0.1 h; MRT last [2, 4]: 19.8 ± 1.7 h |
